What was measured:
[1] = modified release (MR) formulation of Compound (I) that reduces QT prolongation; cited from earlier work
[2] = test system: BDNF expression by astrocytes; test: BDNF expression by astrocytes, qPCR; type: cell-based, rat; details: for BDNF expression astrocytes, % increase of control conditions: 25 ug/mL, 5 days incubation
Description: For analysis of BDNF expression by real-time quantitative polymerase chain reaction (qPCR), astrocytes were seeded in 24 well-plates pre-coated with poly-D-lysine. After 1 day of culture, fresh serum free medium containing compounds was added during 5 days at 37° C. At the end of the incubation time total RNA content were extracted and reverse transcription was performed. Expression levels were calculated using the ΔCt method where the expression level of the mRNA of interest is given by 2-ΔCT with ΔCT=CT target mRNA−CT reference mRNA (Gapdh), in the same sample.
Rat Primary Culture of Astrocytes—rat mixed glial cells were cultured as described by McCarthy et al., 1980. Primary rat glial cells were prepared from the cortical of newborn Wistar rats (1 day). Briefly, meninges and blood vessels of the mice cortex were removed and placed in ice-cold medium of Leibovitz (L15; PanBiotech, ref P04-27055, batch 4511117) containing 2% of Penicillin-Streptomycin (PS; PanBiotech, ref P06-07100, batch 2110917) and 1% of bovine serum albumin (BSA; PanBiotech, ref P06-1391100, batch H171006). Tissues were dissociated with 0.25% trypsin-EDTA (PanBiotech, ref P10-023100, batch 8970318) at 37° C. for 10 min. Cells were then submitted to a supplementary incubation of 15 min at 37° C. in presence of deoxyribonuclease I (0.1 mg/ml Panbiotech, ref: P60-37780100, batch: H170706). Cells were then pelleted (5 min at 1200 rpm) and trypsinization was stopped by adding DMEM (Panbiotech, Ref P04-03600, Batch 5181217) supplemented with 10% FCS (Fischer, Ref 10270106, batch 42G2068K), 1 mM of Na/pyruvate (PanBiotech, ref: P04-43100, batch: 3470914) and 2% PS. Cells suspension was mechanically dissociated and filtered through 40 μm diameter nylon meshes (BD Falcon, Ref: 352340). The cells were collected by centrifugation at 1200 rpm/min for 10 min, re-suspended in culture medium and then plated in culture flasks (Dutscher, ref: 690175). Cells were seeded at a density of 1.25×10^5 cells/cm^2 and cultured in 5% CO2 at 37° C. Medium was changed three times per week.
Analysis of BDNF expression by real-time quantitative polymerase chain reaction (PCR): astrocytes were seeded in 24 well-plates pre-coated with poly-D-lysine (Sigma, ref P7886, batch: SLBQ9797V). After 1 day of culture, fresh serum free medium containing compounds was added during 5 days at 37° C. At the end of the incubation time, medium was removed and total RNA content were extracted using kit nucleo spin RNS XS (Macherey Nagel; 20 μL/well). 6 wells/condition were done. RNA concentration was determined using a Nanodrop 2000 spectrophotometer (Life Technologies ThermoFisher Scientific, Villebon sur Yvette, France).
Reverse transcription was performed on 500 ng of RNA using the high capacity RNA-to-cDNA mix (Applied Biotechnologies). qPCR was performed on 12.5 ng of cDNA using the following primers, purchased from Applied Biotechnology.
For qPCR reactions, the kit TaqMan™ Fast Universal PCR Master Mix (2×) was used. The following volumes were used: mix: 10 uL, enzyme: 4 uL, oligo: 1 uL each, cDNA: 5 uL (12,5 ng). For the comparisons between various compounds and concentrations, expression levels were calculated using the ΔCt method where the expression level of the mRNA of interest is given by 2-ΔCT with ΔCT=CT target mRNA−CT reference mRNA (Gapdh), in the same sample. For the cultures treated with GA or the unknown compound, relative expression levels were determined according to the ΔΔCt method where the expression level of the mRNA of interest is given by 2-ΔΔCT where ΔΔCT=ΔCt for treated cultures−ΔCt for untreated cultures.

[3] = test system: GDNF release by primary rat astrocytes; test: GDNF release by primary rat astrocytes, in situ ELISA; type: cell-based; details: 1 μM, 5 days incubation
Description: Experimental Protocol-In Situ ELISA on Primary Astrocytes Rat Primary Culture of Astrocytes Rat mixed glial cells were cultured as described by McCarthy et al. Primary rat glial cells were prepared from the cortical of newborn Wistar rats (1 day). Briefly, meninges and blood vessels of the mice cortex were removed and placed in ice-cold medium of Leibovitz (L15; PanBiotech, ref P04-27055, batch 4511117) containing 2% Penicillin-Streptomycin (PS; PanBiotech, ref P06-07100, batch 2110917) and 1% of bovine serum albumin (BSA; […] Cells were then submitted to a supplementary incubation of 15 min. at 37° C. in presence of deoxyribonuclease I (0.1 mg/mL Panbiotech, ref: P60-37780100, batch: H140508). Cells were then pelleted (5 min. at 1200 rpm) and trypsinization was stopped by adding DMEM (PanBiotech, Ref P04-03600, Batch 8420517) supplemented with 10% FCS (Fischer, Ref 10270106, batch 41A0940K), 1 mM of Na/pyruvate (PanBiotech, ref: P04-43100, batch 3470914). Cells suspension was mechanically dissociated and filtered through […] diameter nylon meshes (BD Falcon, Ref: 352340). The cells were collected by centrifugation at 1200 rpm/min for 10 min, resuspended in culture medium and then plated in culture flasks (Dutscher, ref: 690175). Cells were seeded at a density of 1.25×10^5 cells/cm^2 and culture in 5% CO2 at 37° C. Medium was changed 3 times per week. At confluency, astrocytes were plated in 96-well Nunc MaxiSorp surface polystyrene flat-bottom immunoplate precoated with poly-D-lysine during 30 min (Sigma, Ref: […], batch: SLBS8705) and an anti-GDNF monoclonal antibody overnight at 4° C. at a density of 30,000 cells/well. […] At the end of drug treatment, cells were carefully washed with TBST (20 mM Tris-HCl (pH 7.6), 150 mM NaCl, and 0.05% (vol/vol) Tween 20). The plate was then incubated with the polyclonal anti-human GDNF antibody overnight. The amount of specifically bound polyclonal antibody, which when exposed to chromogenic substrate (TMB reagent; Promega), changes color in proportion to the amount of GDNF present in the sample. The color intensity was quantified by measuring the absorbance at 450 nm. GDNF standards, ranging in concentration from 0 to 500 pg/mL were added in parallel wells in the same medium than hippocampal neurons.

[4] = test system: BDNF release by primary rat astrocytes; test: BDNF release by primary rat astrocytes, in situ ELISA; type: cell-based; details: 1 μM, 5 days incubation
Description: At confluency, astrocytes were plated in 96-well Nunc MaxiSorp surface polystyrene flat-bottom immunoplate precoated with poly-D-lysine during 30 min. and an anti-BDNF monoclonal antibody overnight at 4° C. at a density of 30,000 cells/well. […] At the end of drug treatment, cells were carefully washed with TBST (20 mM Tris-HCl (pH 7.6), 150 mM NaCl, and 0.05% (vol/vol) Tween 20). The plate was then incubated with the polyclonal anti-human BDNF antibody overnight and BDNF quantified. Experimental Protocol-In Situ ELISA on Primary Astrocytes Rat Primary Culture of Astrocytes Rat mixed glial cells were cultured as described by McCarthy et al. Primary rat glial cells were prepared from the cortical of newborn Wistar rats (1 day). […] Medium was changed 3 times per week. At confluency, astrocytes were plated in 96-well Nunc MaxiSorp surface polystyrene flat-bottom immunoplate precoated with poly-D-lysine during 30 min (Sigma, Ref: […], batch: SLBS8705) and an anti-BDNF monoclonal antibody overnight at 4° C. at a density of 30,000 cells/well. (Balkowiec and Katz “Cellular Mechanisms Regulating Activity-Dependent Release of Native Brain-Derived Neurotrophic Factor from Hippocampal Neurons” J. […] At the end of drug treatment, cells were carefully washed with TBST (20 mM Tris-HCl (pH 7.6), 150 mM NaCl, and 0.05% (vol/vol) Tween 20). The plate was then incubated with the polyclonal anti-human BDNF antibody overnight. The amount of specifically bound polyclonal antibody, which when exposed to chromogenic substrate (TMB reagent; Promega), changes color in proportion to the amount of BDNF present in the sample. The color intensity was quantified by measuring the absorbance at 450 nm. BDNF standards, ranging in concentration from 0 to 500 pg/mL were added in parallel wells in the same medium than hippocampal neurons.

[5] = test system: BDNF release by primary hippocampal neurons; test: BDNF release by primary hippocampal neurons, in situ ELISA; type: cell-based, rat; details: 1 μM, 3 days incubation
Description: Hippocampal neurons were plated in 96-well Nunc MaxiSorp surface polystyrene flat-bottom immunoplate precoated with poly-D-lysine during 30 min an anti-BDNF monoclonal antibody overnight at 4° C. at a density of 70,000 cells/well. […] At the end of drug treatment, cells were carefully washed with TBST (20 mM Tris-HCl (pH 7.6), 150 mM NaCl, and 0.05% (vol/vol) Tween 20). The plate was then incubated with the polyclonal anti-human BDNF antibody overnight and BDNF quantified.
Experimental Protocol—In Situ ELISA on Primary Hippocampal Neurons Hippocampal Neuron Culture
Newborn rats (Wistar rats, Janvier) were deeply anesthetized by hypothermia and decapitated. […] Cells were mechanically dissociated by 3 passages through a 10 ml pipette. Cells were then centrifuged at 515×g for 10 min at 4° C. […] Viable cells were counted in a Neubauer cytometer using the trypan blue exclusion test.
Hippocampal neurons were plated in 96-well Nunc MaxiSorp surface polystyrene flat-bottom immunoplate precoated with poly-D-lysine during 30 min (Sigma, Ref: P7886, batch: SLBS8705) an anti-BDNF monoclonal antibody overnight at 4° C. at a density of 70000 cells/well.
At the end of drug treatment, cells were carefully washed with TBST (20 mM Tris-HCl (pH 7.6), 150 mM NaCl, and 0.05% (vol/vol) Tween 20). The plate was then incubated with the polyclonal anti-human BDNF antibody overnight. The amount of specifically bound polyclonal antibody was then detected through the use of the anti-IgY-horseradish peroxidase tertiary antibody, which when exposed to the chromogenic substrate (TMB reagent; Promega), changes color in proportion to the amount of BDNF present in the sample. The color intensity was quantified by measuring the absorbance at 450 nm.

O=C1c2ccccc2CN1CC1CCN(CC(O)c2ccc(F)cc2)CC1 (stereo not shown) [BFB-520]
maximum plasma concentration (Cmax) [1]: < 12 ng/mL

glatiramer acetate [reference compound]
BDNF expression astrocytes, % increase of control conditions [2]: 10% | BDNF expression astrocytes, % increase of control conditions ([2]; listed as glatiramer acetate): 10% | Effect on BDNF expression by astrocytes compared to control condition (statistical) ([2]; 25 μg/mL, 5 days, ns p>0.05): no effect

Cc1cccc([C@H](C)c2cnc[nH]2)c1C [Dexmedetomidine, dexmedetomidine, reference compound]
GDNF release astrocytes, % increase of control conditions [3]: 15.8% | GDNF release astrocytes, % increase of control conditions ([3]; listed as dexmedetomidine): 15.8%

CCCN1CCC(c2cccc(S(C)(=O)=O)c2)CC1 [Pridopidine, pridopidine, reference compound]
BDNF release astrocytes, % increase of control conditions [4]: 22.3% | BDNF release astrocytes, % increase of control conditions ([4]; listed as pridopidine): 22% | BDNF release hippocampal neurons, % increase of control conditions [5]: 18.4% | BDNF release hippocampal neurons, % increase of control conditions ([5]; listed as pridopidine): 18.4%

— patent publication US11083723B2, “Use of roluperidone to treat negative symptoms and disorders, increase neuroplasticity, and promote neuroprotection” (Minerva Neurosciences, Inc., priority 2018, dated 2021)
